Reference: patent publication US7544694B2, “Substituted diaza-spiro-[5.5]-undecane derivatives and their use as neurokinin antagonists” (Janssen Pharmaceutica N.V., priority 2004, dated 2009)

Key:
Type in all cases: cell-based
NK1 = NK1 (Homo sapiens, UniProt P25103); assay: Signal transduction (ST), intracellular Ca++ (FLIPR), functional NK1 antagonistic activity; settings: antagonist, read-out: NK1 pIC50 (converted)
Method: (§1) This test evaluates in vitro functional NK1 antagonistic activity. For the measurements of intracellular Ca^++ concentrations the cells were grown on 96-well (black wall/transparent bottom) plates from Costar for 2 days until they reached confluence. The cells were loaded with 2 μM Fluo3 in DMEM containing 0.1% BSA and 2.5 mM probenecid for 1 h at 37° C. They were washed 3× with a Krebs buffer (140 mM NaCl, 1 mM MgCl2×6H2O, 5 mM KCl, 10 mM glucose, 5 mM HEPES; 1.25 mM CaCl2; pH 7.4) containing 2.5 mM probenecid and 0.1% BSA (Ca^++-buffer). The cells were preincubated with a concentration range of antagonists for 20 min at RT and Ca^++-signals after addition of the agonists were measured in a Fluorescence Image Plate Reader (FLIPR from Molecular Devices, Crawley, England). The peak of the Ca^++-transient was considered as the relevant signal and the mean values of corresponding wells were analysed as described below.
(§2) The sigmoidal dose response curves were analysed by computerised curve-fitting, using the GraphPad Program. The EC50-value of a compound is the effective dose showing 50% of maximal effect. For mean curves the response to the agonist with the highest potency was normalised to 100%. For antagonist responses the IC50-value was calculated using non-linear regression.
(§3) The last columns indicate—without being limited thereto—for which action the compounds might be most suitable. Of course, since for some neurokinin receptors no data was determined, it is obvious that these compounds might be attributed to another suitable use.

NK2 = molecular target: T1, NK2 (Homo sapiens, UniProt P21452); assay: Signal transduction (ST), intracellular Ca++ (FLIPR), NK2; settings: antagonist, read-out: NK2 pIC50 (converted)
T1 sequence (P21452 1-398): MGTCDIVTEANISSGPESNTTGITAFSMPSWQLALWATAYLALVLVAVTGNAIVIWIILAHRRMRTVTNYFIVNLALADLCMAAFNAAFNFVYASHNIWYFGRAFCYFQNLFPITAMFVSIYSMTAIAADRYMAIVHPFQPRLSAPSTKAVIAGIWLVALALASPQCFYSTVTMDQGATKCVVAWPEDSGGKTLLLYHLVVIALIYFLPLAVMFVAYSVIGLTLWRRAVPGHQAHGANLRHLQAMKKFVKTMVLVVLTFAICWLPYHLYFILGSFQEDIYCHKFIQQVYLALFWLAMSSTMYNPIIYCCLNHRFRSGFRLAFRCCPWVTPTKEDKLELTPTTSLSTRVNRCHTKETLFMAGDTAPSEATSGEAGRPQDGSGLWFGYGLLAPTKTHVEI
Method: [The source words this procedure for another target and reports this target under the same test.] as §1, §2, §3

NK3 = molecular target: T2, NK3 (Homo sapiens, UniProt P29371); assay: Signal transduction (ST), intracellular Ca++ (FLIPR), NK3; settings: antagonist, read-out: NK3 pIC50 (converted)
T2 sequence (P29371 1-465): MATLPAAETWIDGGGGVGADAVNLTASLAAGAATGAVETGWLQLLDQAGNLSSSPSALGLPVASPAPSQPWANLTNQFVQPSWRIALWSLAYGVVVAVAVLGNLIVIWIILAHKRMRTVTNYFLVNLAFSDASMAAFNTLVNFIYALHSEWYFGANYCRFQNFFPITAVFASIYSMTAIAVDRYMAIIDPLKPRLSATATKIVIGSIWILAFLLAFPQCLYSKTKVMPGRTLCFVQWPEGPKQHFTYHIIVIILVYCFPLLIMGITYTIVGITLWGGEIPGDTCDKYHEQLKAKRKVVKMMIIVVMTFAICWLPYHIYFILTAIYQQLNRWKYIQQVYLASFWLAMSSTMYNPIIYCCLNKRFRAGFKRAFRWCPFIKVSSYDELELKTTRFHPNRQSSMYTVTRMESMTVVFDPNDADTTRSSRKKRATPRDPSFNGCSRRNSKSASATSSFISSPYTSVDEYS
Method: [The source words this procedure for another target and reports this target under the same test.] as §1, §2, §3

Sequence of NK1 (P25103 whole entry): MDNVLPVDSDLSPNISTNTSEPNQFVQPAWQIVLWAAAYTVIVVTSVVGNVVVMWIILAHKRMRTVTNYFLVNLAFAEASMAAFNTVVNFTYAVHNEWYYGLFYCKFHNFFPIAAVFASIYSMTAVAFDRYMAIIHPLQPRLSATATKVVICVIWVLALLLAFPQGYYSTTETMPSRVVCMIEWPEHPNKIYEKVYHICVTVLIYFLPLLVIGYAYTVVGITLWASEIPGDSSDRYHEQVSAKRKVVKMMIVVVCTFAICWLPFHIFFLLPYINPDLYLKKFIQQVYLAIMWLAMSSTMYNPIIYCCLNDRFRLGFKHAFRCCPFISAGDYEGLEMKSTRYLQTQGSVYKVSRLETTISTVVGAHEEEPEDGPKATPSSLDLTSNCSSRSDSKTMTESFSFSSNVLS

Row | IC50 (NK1) | IC50 (NK2) | IC50 (NK3) | Compound
1 | 288 nM | 1820 nM | 1780 nM | O=C(C1CCOC1)N1CCCC2(CCCN(C3CCN(C(=O)c4cc(C(F)(F)F)cc(C(F)(F)F)c4)C(Cc4ccccc4)C3)C2)C1 (single isomer, unassigned) [Compound 210]
2 | 282 nM | 4570 nM | ~10000 nM | O=C(C1CCOC1)N1CCCC2(CCCN(C3CCN(C(=O)c4cc(C(F)(F)F)cc(C(F)(F)F)c4)C(Cc4ccccc4)C3)C2)C1 (single isomer, unassigned) [Compound 211]
3 | 85.1 nM | 4790 nM | 5370 nM | CC1CCCCC1C(=O)N1CCC2(CC1)CCN([C@@H]1CCN(C(=O)c3cc(C(F)(F)F)cc(C(F)(F)F)c3)[C@H](Cc3ccccc3)C1)CC2 (stereo partly shown) [Compound 39]
4 | 977 nM | > 10000 nM | > 10000 nM | CC(C)(C)C1CCC(C(=O)N2CCC3(CC2)CCN([C@H]2CCN(C(=O)c4cc(C(F)(F)F)cc(C(F)(F)F)c4)[C@H](Cc4ccccc4)C2)CC3)CC1 (stereo partly shown) [Compound 40]
5 | 148 nM | 8510 nM | > 10000 nM | O=C(C1=CCCCC1)N1CCC2(CC1)CCN([C@H]1CCN(C(=O)c3cc(C(F)(F)F)cc(C(F)(F)F)c3)[C@H](Cc3ccccc3)C1)CC2 [Compound 41]
6 | 61.7 nM | 8910 nM | 9330 nM | O=C(c1ccccc1Cl)N1CCC2(CC1)CCN([C@H]1CCN(C(=O)c3cc(C(F)(F)F)cc(C(F)(F)F)c3)[C@H](Cc3ccccc3)C1)CC2 [Compound 42]
7 | 105 nM | 3630 nM | > 10000 nM | N#Cc1ccc(C(=O)N2CCC3(CC2)CCN([C@H]2CCN(C(=O)c4cc(C(F)(F)F)cc(C(F)(F)F)c4)[C@H](Cc4ccccc4)C2)CC3)cc1 [Compound 43]
8 | 87.1 nM | – | ~10000 nM | O=C(c1cc(C(F)(F)F)cc(C(F)(F)F)c1)N1CC[C@H](N2CCC3(CC2)CCN(S(=O)(=O)c2cc(Cl)sc2Cl)CC3)C[C@H]1Cc1ccccc1 [Compound 97]
9 | 60.3 nM | – | 525 nM | O=C(c1cc(C(F)(F)F)cc(C(F)(F)F)c1)N1CC[C@H](N2CCC3(CC2)CCN(S(=O)(=O)c2ccccc2Cl)CC3)C[C@H]1Cc1ccccc1 [Compound 106]
10 | 174 nM | – | 5130 nM | O=C(c1cc(C(F)(F)F)cc(C(F)(F)F)c1)N1CC[C@H](N2CCC3(CC2)CCN(S(=O)(=O)c2cc(Cl)ccc2Cl)CC3)C[C@H]1Cc1ccccc1 [Compound 110]
11 | 30.9 nM | – | 1510 nM | N#Cc1ccccc1S(=O)(=O)N1CCC2(CCN([C@H]3CCN(C(=O)c4cc(C(F)(F)F)cc(C(F)(F)F)c4)[C@H](Cc4ccccc4)C3)CC2)CC1 [Compound 118]
12 | 145 nM | > 10000 nM | – | Cc1cc(C)cc(C(=O)N2CCC(N3CCC4(CCN(C(=O)C5CC5)CC4)CC3)CC2Cc2ccccc2)c1 (stereo not shown) [Compound 153]
13 | 158 nM | 6460 nM | – | O=C(C1CC1)N1CCC2(CC1)CCN(C1CCN(C(=O)c3cc(Cl)cc(Cl)c3)C(Cc3ccccc3)C1)CC2 (stereo not shown) [Compound 155]

The remaining lines, values behind:

Row | Compound | IC50 (NK1) | IC50 (NK2) | IC50 (NK3)
14 | O=C1CCC(C(=O)N2CCC3(CC2)CCN(C2CCN(C(=O)c4cc(C(F)(F)F)cc(C(F)(F)F)c4)C(Cc4ccccc4)C2)CC3)N1 (stereo not shown) [Compound 4] | 38.9 nM | 1550 nM | 1290 nM
15 | O=C(c1cc(C(F)(F)F)cc(C(F)(F)F)c1)N1CCC(N2CCC3(CC2)CCN(C(CO)c2cccs2)CC3)CC1Cc1ccccc1 (stereo not shown) [Compound 6] | 129 nM | 7760 nM | > 10000 nM
16 | CC(C)(C)C(=O)N1CCC2(CC1)CCN([C@H]1CCN(C(=O)c3cc(C(F)(F)F)cc(C(F)(F)F)c3)[C@H](Cc3ccccc3)C1)CC2 [Compound 7] | 115 nM | > 10000 nM | > 10000 nM
17 | CC(C)(C)C(=O)N1CCC2(CC1)CCN([C@@H]1CCN(C(=O)c3cc(C(F)(F)F)cc(C(F)(F)F)c3)[C@H](Cc3ccccc3)C1)CC2 [Compound 8] | 43.7 nM | 2820 nM | 4470 nM
18 | CC1(C(=O)N2CCC3(CC2)CCN([C@H]2CCN(C(=O)c4cc(C(F)(F)F)cc(C(F)(F)F)c4)[C@H](Cc4ccccc4)C2)CC3)CC1 [Compound 11] | 105 nM | 5370 nM | –
19 | NC(=O)C1(C(=O)N2CCC3(CC2)CCN([C@H]2CCN(C(=O)c4cc(C(F)(F)F)cc(C(F)(F)F)c4)[C@H](Cc4ccccc4)C2)CC3)CC1 [Compound 14] | 31.6 nM | > 10000 nM | –
20 | CC1CC1C(=O)N1CCC2(CC1)CCN([C@H]1CCN(C(=O)c3cc(C(F)(F)F)cc(C(F)(F)F)c3)[C@H](Cc3ccccc3)C1)CC2 (stereo partly shown) [Compound 15] | 129 nM | 3160 nM | 7940 nM
21 | CC1(C)C(C(=O)N2CCC3(CC2)CCN([C@H]2CCN(C(=O)c4cc(C(F)(F)F)cc(C(F)(F)F)c4)[C@H](Cc4ccccc4)C2)CC3)C1(C)C [Compound 16] | 191 nM | > 10000 nM | 8510 nM
22 | O=C(C1CCCC1)N1CCC2(CC1)CCN([C@@H]1CCN(C(=O)c3cc(C(F)(F)F)cc(C(F)(F)F)c3)[C@H](Cc3ccccc3)C1)CC2 [Compound 18] | 20.4 nM | 1200 nM | 4680 nM
23 | O=C(C1CCOC1)N1CCC2(CC1)CCN([C@H]1CCN(C(=O)c3cc(C(F)(F)F)cc(C(F)(F)F)c3)[C@H](Cc3ccccc3)C1)CC2 (stereo partly shown) [Compound 21] | 16.6 nM | 2340 nM | 2140 nM
24 | O=C(c1ccoc1)N1CCC2(CC1)CCN([C@H]1CCN(C(=O)c3cc(C(F)(F)F)cc(C(F)(F)F)c3)[C@H](Cc3ccccc3)C1)CC2 [Compound 24] | 112 nM | > 10000 nM | 1320 nM
25 | Cc1ccoc1C(=O)N1CCC2(CC1)CCN([C@H]1CCN(C(=O)c3cc(C(F)(F)F)cc(C(F)(F)F)c3)[C@H](Cc3ccccc3)C1)CC2 [Compound 25] | 83.2 nM | 3980 nM | > 10000 nM
26 | Cc1occc1C(=O)N1CCC2(CC1)CCN([C@H]1CCN(C(=O)c3cc(C(F)(F)F)cc(C(F)(F)F)c3)[C@H](Cc3ccccc3)C1)CC2 [Compound 27] | 20.4 nM | 4470 nM | 3310 nM
27 | Cc1ccc(C(=O)N2CCC3(CC2)CCN([C@H]2CCN(C(=O)c4cc(C(F)(F)F)cc(C(F)(F)F)c4)[C@H](Cc4ccccc4)C2)CC3)s1 [Compound 30] | 692 nM | 7940 nM | > 10000 nM
28 | Cc1ccsc1C(=O)N1CCC2(CC1)CCN([C@H]1CCN(C(=O)c3cc(C(F)(F)F)cc(C(F)(F)F)c3)[C@H](Cc3ccccc3)C1)CC2 [Compound 32] | 75.9 nM | 3160 nM | 6610 nM
29 | Cn1cccc1C(=O)N1CCC2(CC1)CCN([C@H]1CCN(C(=O)c3cc(C(F)(F)F)cc(C(F)(F)F)c3)[C@H](Cc3ccccc3)C1)CC2 [Compound 33] | 200 nM | > 10000 nM | > 10000 nM
30 | Cn1cnc(C(=O)N2CCC3(CC2)CCN([C@H]2CCN(C(=O)c4cc(C(F)(F)F)cc(C(F)(F)F)c4)[C@H](Cc4ccccc4)C2)CC3)c1 [Compound 34] | 191 nM | 6170 nM | > 10000 nM
31 | Cc1noc(C)c1C(=O)N1CCC2(CC1)CCN([C@H]1CCN(C(=O)c3cc(C(F)(F)F)cc(C(F)(F)F)c3)[C@H](Cc3ccccc3)C1)CC2 [Compound 35] | 19.1 nM | > 10000 nM | > 10000 nM
32 | Cc1nnsc1C(=O)N1CCC2(CC1)CCN([C@H]1CCN(C(=O)c3cc(C(F)(F)F)cc(C(F)(F)F)c3)[C@H](Cc3ccccc3)C1)CC2 [Compound 36] | 28.2 nM | 4270 nM | > 10000 nM
33 | CC1(C(=O)N2CCC3(CC2)CCN([C@H]2CCN(C(=O)c4cc(C(F)(F)F)cc(C(F)(F)F)c4)[C@H](Cc4ccccc4)C2)CC3)CCCCC1 [Compound 37] | 95.5 nM | 8130 nM | > 10000 nM
